The results in this text go back to US5880076A, “Compositions comprising glycacarbamate and glycaurea compounds” (Lever Brothers Company, Division of Conopco, Inc., priority 1997, dated 1999).

A short description of series [1]: Surface Tension Reduction. It counts as physicochemical. The source says:
An important characteristic feature that surfactants have is the tendency for them to absorb at the water/air interface in an oriented manner, thereby altering the interfacial free energy of that surface. The surface free energy per unit area or surface tension (γ), is a measure of this work and may be considered as the minimum amount of work required to bring sufficient surfactant molecules to the surface.

Series [2] can be described thus: Water Solubility and Krafft Point (0.1% solution in water, 40° C.).
Excerpt: The temperature at which a surfactant forms micelles instead of precipitates is referred to as the Krafft point (Tk), and at or below this temperature the solubility of a surfactant becomes equal to its CMC (numerical value at which micelles are formed).
Series [3] can be described thus: Critical Micelle Concentration (micelle formation). It counts as physicochemical. An excerpt: The critical micelle concentration (CMC) is defined as the concentration at which a surfactant forms micelles in aqueous solution. […] A necessary and sufficient condition for CMC formation and surface tension reduction is the presence of both hydrophilic and hydrophobic functional groups. The hydrophilic portion provides strong interaction between the surfactant at the interface and with the surrounding water phase. The hydrophobic portion provides spontaneous adsorption of the surfactant at the interface and strong interaction with the adjacent air phase. If any of these functions are not performed, then CMC formation and surface tension reduction will not occur. For significant surface activity, a properly balanced hydrophilic and hydrophobic character is essential.

Series [4] in a line: Water solubility and turbidity in aqueous personal product and detergent compositions (statement).
Series [5] can be described thus: Flow aids: water uptake and appearance of intimate admixtures. Format: physicochemical. The following applies: for handling and flowing characteristics (in words): intimate admixtures with ODS, SCMOS, CP-5 or CP-7; for Appearance (flow) / % H2O Uptake: 25° C., 65% R.H.; for % H2O Uptake: based on builder. An excerpt:
It is known in the are that certain ingredients are hygroscopic in nature and liquify after exposure to moisture after a few days. […] Samples were removed periodically, weighed and returned to R. H. chamber. Percent water uptake was based on the amound of builder present. % H2 O Uptake=grams of water absorbed/grams of builder×100 Identical mixtures of ODS, SCMOS, CP-5 or CP-7 and methyl α-D-glucose-6-O-monolaurate (c12 Mgluc), dodecyl β-D-glucopyranoside (C12 Gluc), dodecyl β-D-maltoside (C12 Malt), D-glucose or D-sorbitol were also prepared and are used for comparison. When the comparative sugar surfactant of monosacchardie are used, percent water uptake was based on the amount of saccharide present. % H2 O Uptake=grams of water absorbed/grams of saccharide×100

The nature of series [6]: Viscosity Enhancement/Foam Stabilization (Brookfield Digital Viscometer). The following applies: 4.0% thickener; for Viscosity (Centipoise): 22° C.
The nature of series [7]: Pearlescent/Suspending Action in prototype personal product compositions. Format: physicochemical. The following applies: for Appearance (pearlescence/suspending): 15.0% sodium lauryl sulfate, room temperature, 1 month. How it is done:
The formulations were placed in a clear jar and stored for 1 month. The prototype personal product compositions are as follows:
Personal Product Compositions Comprising Sodium
(§1) Lauryl Sulfate and Glycacarbamate Compounds
N-Tallow D-Glucocarbamate
0.5-4.0% Pearlescent/Suspending
(§2) 2.0% Viscosity Cobuilder
(§3) Lauryl Sulfate and Glycaurea Compounds
(§4) The above formulations were prepared by admixing the above ingredients in listed order and heating the mixture to about 80° C. with rapid stirring. The mixture was then cooled to about 40° C., placed in a clear jar and stored at room temperature.
For a pearlecent personal product formulation to be successful it must have good shelf life and should not separate upon standing.

Series [8] can be described thus: Viscosity Modification of Sodium Lauryl Sulfate prototype detergent compositions. Format: physicochemical. The following applies: 15.0% sodium lauryl sulfate; for Viscosity Increase: 22° C. How it is done: The prototype detergent compositions are as follows:
Detergent Compositions Comprising Sodium
as §1
N-Dodecyl D-Glucocarbamate
2.0-7.0% Foam Stabilizer/Thickener
as §2, §3, §4
It is well known that the viscosity of a liquid composition comprision of anionic surfactant can be modified by the addition of inorganic salts, such as sodium chloride. However, in the absence of an organic modifier, high levels of salt may be necessary to achieve the required viscosity which may lead to problems of storage at cold temperature or even salting our certain ingrediets. In practice, however, the viscosity of a liquid compositionis modified by the simultaneous addition of thickener and small amounts of inorganic salt (viscosity cobuilder). The combined effect is greater than either one alone. The viscosity of the above prototype detergent compositions comprising various amounts of glycacarbamate/urea compound are as follows: […]

Consider `CCCCCCCCCCN(C[C@H](O)[C@@H](O)[C@H](O)[C@H](O)CO)C(N)=O` [N-Decyl D-Glucourea], for which the “Surface tension reduction (γ) at 40° C.” value in series [1] (40° C.) was “Yes”. Also, in series [2] (40° C.), the “H2O Solubility at 40° C.” value was “Yes” and the “Krafft point (Tk)” value is listed as “Below Tk”. The “CMC at 40° C. (micelle formation)” value in series [3] (40° C.) is listed as “Yes”.
Regarding `CCCCCCCCCCCCCCCCCCN1C[C@H](O)[C@H]([C@H](O)[C@H](O)CO)OC1=O` [N-Octadecyl D-Glucocarbamate], the “Surface tension reduction (γ) at 40° C.” value in series [1] (40° C.) was “No”; in series [1] (40° C., listed as F) it was “do not significantly reduce the surface tension of water”. In addition, the “H2O Solubility at 40° C.” value in series [2] (40° C.) is “No”; in series [2] (40° C., listed as F) it was “insoluble in water”. For the same compound, the “Krafft point (Tk)” value in series [2] (40° C.) is on record as “Above Tk”. The “CMC at 40° C. (micelle formation)” value in series [3] (40° C.) is reported as “No”; in series [3] (40° C., listed as F), “do not form micelles”.
Consider `CCCCCCCCN1C[C@H](O)[C@H]([C@H](O)[C@H](O)CO)OC1=O` [N-Octyl D-Glucocarbamate], for which the “Surface tension reduction (γ) at 40° C.” value in series [1] (40° C.) is “Yes”. In addition, in series [2] (40° C.), the “H2O Solubility at 40° C.” value is “Yes” and the “Krafft point (Tk)” value was “Below Tk”. Further, in series [3] (40° C.), the “CMC at 40° C. (micelle formation)” value is “Yes”.
On to `CCCCCCCCCCCCN1C[C@H](O)[C@H]([C@H](O[C@H]2O[C@H](CO)[C@@H](O)[C@H](O)[C@H]2O)[C@H](O)CO)OC1=O` [N-Dodecyl D-Maltocarbamate], for which the “Surface tension reduction (γ) at 40° C.” value in series [1] (40° C.) is recorded as “Yes”. Further, the water solubility result in series [4] (compared to other known glycacarbamate and glycaurea compounds) was “enhanced water solubility”. Besides, in series [4] (in aqueous personal product and detergent compositions), the turbidity entry is “less turbid”. Besides, in series [2] (40° C.), the “H2O Solubility at 40° C.” value is listed as “Yes” and the “Krafft point (Tk)” value is listed as “Below Tk”. For the same compound, the “CMC at 40° C. (micelle formation)” value in series [3] (40° C.) is “Yes”.
With `CCCCCCCCCCCCCCN1C[C@H](O)[C@H]([C@H](O)[C@H](O)CO)OC1=O` [N-Tetradecyl D-Glucocarbamate], in series [1] (with slight heating), the “Surface tension reduction (γ) at 40° C.” value is “Yes”. For the same compound, in series [5], the “handling and flowing characteristics (in words)” value is “improved the handling and flowing characteristics”. Besides, in series [2] (with slight heating), the “H2O Solubility at 40° C.” value is given as “Yes” and the “Krafft point (Tk)” value is recorded as “Below Tk”. Further, the “CMC at 40° C. (micelle formation)” value in series [3] (with slight heating) is “Yes”.
Take `CCCCCCCCCCCC(=O)N(CCO)CCO` [Lauramide DEA, lauric diethanolamide, reference compound]: in series [6], the “Foam Stability” value is “Yes” and the “Viscosity (Centipoise)” value was found to be 2376 Centipoise.
For `CCCCCCCCCCCCCCCCN1C[C@H](O)[C@H]([C@H](O)[C@H](O)CO)OC1=O` [N-Hexadecyl D-Glucocarbamate], the “Surface tension reduction (γ) at 40° C.” value in series [1] (40° C.) is reported as “No”; in series [1] (40° C., listed as E), “do not significantly reduce the surface tension of water”. Moreover, the “H2O Solubility at 40° C.” value in series [2] (40° C.) is given as “No”; in series [2] (40° C., listed as E), “insoluble in water”. In addition, in series [2] (40° C.), the “Krafft point (Tk)” value is “Above Tk”. The “CMC at 40° C. (micelle formation)” value in series [3] (40° C.) is on record as “No”; in series [3] (40° C., listed as E) it was “do not form micelles”.
As to `CCCCCCCCCCCCCCCCN(C[C@H](O)[C@@H](O)[C@H](O)[C@H](O)CO)C(N)=O` [N-Hexadecyl D-Glucourea], in series [1] (40° C.), the “Surface tension reduction (γ) at 40° C.” value was “No”. The “handling and flowing characteristics (in words)” value in series [5] is “improved the handling and flowing characteristics”. In addition, the “H2O Solubility at 40° C.” value in series [2] (40° C.) is listed as “No”. The “Krafft point (Tk)” value in series [2] (40° C.) is listed as “Above Tk”. In addition, the “Appearance (pearlescence/suspending)” value in series [7] (0.5% opacifier), in series [7] (1.0% opacifier), in series [7] (2.0% opacifier), in series [7] (3.0% opacifier) and in series [7] (4.0% opacifier) was “Pearlescent/Suspending Action” each time. The “pearlescence (in words)” value in series [7] (sodium lauryl sulfate compositions) was “excellent pearlescence”. Moreover, the “CMC at 40° C. (micelle formation)” value in series [3] (40° C.) is on record as “No”.
For the compound `CCCCCCCCCCN1C[C@H](O)[C@H]([C@H](O)[C@H](O)CO)OC1=O` [N-Decyl D-Glucocarbamate], the “Surface tension reduction (γ) at 40° C.” value in series [1] (40° C.) is reported as “Yes”. In series [2] (40° C.), the “H2O Solubility at 40° C.” value is on record as “Yes” and the “Krafft point (Tk)” value is reported as “Below Tk”. For the same compound, the “CMC at 40° C. (micelle formation)” value in series [3] (40° C.) is listed as “Yes”.
As to `O=C[C@H](O)[C@@H](O)[C@H](O)[C@H](O)CO` [D-Glucose, D-glucose, reference compound], in series [6], the “Foam Stability” value was “No” and the “Viscosity (Centipoise)” value is reported as 27 Centipoise. In addition, in series [8] (2.0% thickener), the “Appearance (viscosity)” value is “Purable Liquid” and the “Viscosity Increase” value is on record as “No”. In series [8] (4.0% thickener), the “Appearance (viscosity)” value is listed as “Purable Liquid” and the “Viscosity Increase” value is “No”. In series [8] (7.0% thickener), the “Appearance (viscosity)” value is reported as “Purable Liquid” and the “Viscosity Increase” value is “No”.
In the case of “tetrasodium sulfocarboxymethyloxysuccinate [Na4 SCMOS, reference compound]”, in series [5] (9 days), the “Appearance (flow)” value is listed as “Sticky Paste” and the “% H2O Uptake” value amounted to 38%.
Turning to `O=C([O-])CC(OC(CC(=O)[O-])C(=O)[O-])C(=O)[O-].[Na+].[Na+].[Na+].[Na+]` (centres unmarked) [Na4 ODS, tetrasodium oxydisuccinate, reference compound], in series [5] (4 days), the “Appearance (flow)” value was “Liquid” and the “% H2O Uptake” value stood at 59%.
